In patent US11028090B2 (Dong Wha Pharm. Co., Ltd., priority 2017, dated 2021):
Where two headings read alike, the source gives them in different places.

What was measured:
[1] = molecular target: BRD4 (BD1+BD2) bromodomain (Homo sapiens (Human), UniProt O60885); assay: BRD4 binding inhibition (AlphaScreen, GST-BRD4 vs tetraacetylated histone H4 peptide)
Procedure, shortened: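 GST-BRD4 (BD1+BD2) and biotinylated tetraacetyl-histone H4 peptide, each at 100 nM in HEPES pH 7.4 buffer with BSA and DTT, were combined with compound. Glutathione acceptor and streptavidin donor beads were added, then incubated 30 min at room temperature in the dark. Read-out was AlphaScreen signal.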

[2] = system: acute myelogenous leukemia cells (MV-4-11 cells); assay: Cytotoxicity to acute myelogenous leukemia cells (MV-4-11 cells), CCK-8; settings: Homo sapiens, MV4-11, 72 h
[3] = GST-BRD4 (BD1+BD2) vs biotinylated acetyl-histone H4 peptide, AlphaScreen, read-out: BRD4 IC50
[4] = read-out: IC50, cytotoxicity against acute myelogenous leukemia cells
[5] = read-out: MV-4-11 Cytotoxicity IC50
[6] = GST-BRD4 (BD1+BD2) / biotinylated acetyl-histone H4 (Lys5,8,12,16) peptide, read-out: IC50, BRD4 binding inhibition

Structure (SMILES)	IC50 [1, 3] [µM]	IC50 [2, 4] [µM]	IC50 [2, 5] [µM]	IC50 [1, 6] [µM]
COc1cc2nc(NCCCCNC(=O)CC(C)C)c3nnc(C)n3c2cc1NO [Example 558, N-[4-(8-hydroxyamino-7-methoxy-1-methyl-[1,2,4]triazolo[4,3-a]quinoxaline-4-ylamino)-butyl]-3-methyl-butyramide]	0.057	≤ 0.2	0.087	
COc1cc(N)c(NC(=O)c2ccc3c(c2)nc(NCCCCNC(=O)CC(C)C)c2nnc(C)n23)cc1OC [Example 217, 1-methyl-4-[4-(3-methyl-butyrylamino)-butylamino]-[1,2,4]triazolo[4,3-a]quinoxaline-7-carboxylic acid-(2-amino-4,5-dimethoxy-phenyl)-amide]	0.016		0.256	≤ 0.05
COc1ccc2c(c1)nc(NCCCCNC(=O)[C@@H](NC(=O)CC(C)C)C(C)C)c1nnc(C)n12 [Example 322, (S)-N-[4-(7-methoxy-1-methyl-[1,2,4]triazolo[4,3-a]quinoxaline-4-ylamino)-butyl]-3-methyl-2-(3-methyl-butyrylamino)-butyramide]	0.014	≤ 0.2	0.157	≤ 0.05
Cc1nnc2c(NCCCCNC(=O)OC(C)C)nc3cc(OCCN4CCOCC4)ccc3n12 [Example 436, {4-[1-methyl-7-(2-morpholine-4-yl-ethoxy)-[1,2,4]triazolo[4,3-a]quinoxaline-4-ylamino]-butyl}-carbamic acid isopropylester]	0.018	≤ 0.2	0.16	≤ 0.05
Cc1nnc2c(NCCCCNC(=O)OC(C)(C)C)nc3cc(-n4ccnc4)ccc3n12 [Example 490, [4-(7-imidazole-1-yl-1-methyl-[1,2,4]triazolo[4,3-a]quinoxaline-4-ylamino)-butyl]-carbamic acid-tert-butylester]	0.009	≤ 0.2	0.19	≤ 0.01
CCc1nnc2c(NCCCCNC(=O)CC(C)C)nc3cc(OC)c(OC)cc3n12 [Example 597, N-[4-(1-ethyl-7,8-dimethoxy-[1,2,4]triazolo[4,3-a]quinoxaline-4-ylamino)-butyl]-3-methyl-butyramide]	0.018		0.23	≤ 0.05
COc1cc(C)c2nc(NCCCCNC(=O)CC(C)C)c3nnc(C)n3c2c1 [Example 160, N-[4-(8-methoxy-1,6-dimethyl-[1,2,4]triazolo[4,3-a]quinoxaline-4-ylamino)-butyl]-3-methyl-butyramide]	0.028	≤ 0.2	0.07	≤ 0.05
COCCOc1ccc2c(c1)nc(NCCCCNC(=O)NC(C)C)c1nnc(C)n12 [Example 422, 1-isopropyl-3-{4-[7-(2-methoxy-ethoxy)-1-methyl-[1,2,4]triazolo[4,3-a]quinoxaline-4-ylamino]-butyl}-urea]	0.003		0.45	≤ 0.01
COc1ccc2c(nc(NCCCCNC(=O)Cc3cccs3)c3nnc(C)n32)c1Cl [Example 463, N-[4-(6-chloro-7-methoxy-1-methyl-[1,2,4]triazolo[4,3-a]quinoxaline-4-ylamino)-butyl]-2-thiophene-2-yl-acetamide]		≤ 0.2	0.1	≤ 0.05
CCCOC(=O)NCCCCNc1nc2cc(OCCOC)ccc2n2c(C)nnc12 [Example 367, {4-[7-(2-methoxy-ethoxy)-1-methyl-[1,2,4]triazolo[4,3-a]quinoxaline-4-ylamino]-butyl}-carbamic acid propylester]	0.005		0.35	≤ 0.01
COc1cc2nc(NCCCCNC(=O)c3ccccc3F)c3nnc(C)n3c2cc1OC [Example 106, N-[4-(7,8-dimethoxy-1-methyl-[1,2,4]triazolo[4,3-a]quinoxaline-4-ylamino)-butyl]-2-fluoro-benzamide]	0.028		0.31	≤ 0.05
COc1ccc2c(c1)nc(NCCCCNC(=O)[C@@H](NC(=O)[C@@H](F)C(C)C)C(C)C)c1nnc(C)n12 [Example 321, (S)-2-(S)-fluoro-N-{1-[4-(7-methoxy-1-methyl-[1,2,4]triazolo[4,3-a]quinoxaline-4-ylamino)-butylcarbamoyl]-2-methyl-propyl}-3-methyl-butyramide]	0.012		0.553	≤ 0.05
CSc1ccc2c(c1)nc(NCCCCNC(=O)[C@@H](F)C(C)C)c1nnc(C)n12 [Example 357, 2-(S)-fluoro-3-methyl-N-[4-(1-methyl-7-methylsulfanyl-[1,2,4]triazolo[4,3-a]quinoxaline-4-ylamino)-butyl]-butyramide]	0.062	≤ 0.2	0.044	
COc1cc2nc(NCCCCNC(=O)CCC(C)C)c3nnc(C)n3c2cc1OC [Example 79, 4-methyl-pentanoic acid [4-(7,8-dimethoxy-1-methyl-[1,2,4]triazolo[4,3-a]quinoxaline-4-ylamino)-butyl]-amide]	0.005	≤ 0.2	0.07	≤ 0.01
COc1cccc2c1nc(NCCCCNC(=O)OC(C)(C)C)c1nnc(C)n12 [Example 117, [4-(6-methoxy-1-methyl-[1,2,4]triazolo[4,3-a]quinoxaline-4-ylamino)-butyl]-carbamic acid-tert-butylester]	0.064		0.37	
COc1cc2nc(NCCCCC(=O)NCC(C)C)c3nnc(C)n3c2cc1OC [Example 648, 5-(7,8-dimethoxy-1-methyl-[1,2,4]triazolo[4,3-a]quinoxaline-4-ylamino)-pentanoic acid-isobutylamide]	0.027	≤ 0.2	0.13	≤ 0.05
C/C=C/C(=O)NCCCCNc1nc2cc(OC)c(OC)cc2n2c(C)nnc12 [Example 72, butene-2-oic acid-[4-(7,8-dimethoxy-1-methyl-[1,2,4]triazolo[4,3-a]quinoxaline-4-ylamino)-butyl]-amide]	0.021		0.47	≤ 0.05
Cc1nnc2c(NCCCCNC(=O)CCC(C)C)nc3cc(-c4nc5ccccc5n4C)ccc3n12 [Example 236, 4-methyl-pentanoic acid-{4-[1-methyl-7-(1-methyl-1H-benzoimidazole-2-yl)-[1,2,4]triazolo[4,3-a]quinoxaline-4-ylamino]-butyl}-amide]	0.002	≤ 0.2	0.087	≤ 0.01
CCC(C)CC(=O)NCCCCNc1nc2c(OC)c(OC)c(OC)cc2n2c(C)nnc12 (stereo not shown) [Example 196, 3-methyl-pentanoic acid-[4-(6,7,8-trimethoxy-1-methyl-[1,2,4]triazolo[4,3-a]quinoxaline-4-ylamino)-butyl]-amide]	0.032		0.55	≤ 0.05
Cc1nnc2c(NCCCCNC(=O)CC(C)C)nc3cc(OC4CCOCC4)ccc3n12 [Example 344, 3-methyl-N-{4-[1-methyl-7-(tetrahydro-pyran-4-yloxy)-[1,2,4]triazolo[4,3-a]quinoxaline-4-ylamino]-butyl}-butyramide]	0.01	≤ 0.2	0.121	≤ 0.01
COc1cc2nc(NCCCCNC(=O)CC(C)C)c3nnc(C)n3c2cc1NC(=O)Cc1ccccc1 [Example 564]	0.009		0.61	≤ 0.01
